Where two headings read alike, the source gives them in different places.
Legend:
Balb/c mice = assay: Mouse Arthus; type: in vivo; details: oral gavage at 30 mg/kg, 1 h pre-treatment
Description: Mouse Arthus studies were conducted as reported in Braselmann S, Taylor V, Zhao H, Wang S, Sylvain C, Baluom M, Qu K, Herlaar E, Lau A, Young C, Wong B R, Lovell S, Sun T, Park G, Argade A, Jurcevic S, Pine P, Singh R, Grossbard E B, Payan D G, Masuda E S: R406 an orally available spleen tyrosine kinase inhibitor blocks fc receptor signaling and reduces immune-complex mediated inflammation. J Pharmacol Exp Ther, 2006, 319:998-1008.
In summary, female Balb/c mice (6-7 weeks on arrival) were habituated to the animal facility for at least 4 days. On the day of the experiment, animals were pre-treated (t=minus 1 h) with compound or vehicle alone by gavage (PO). At t=0, animals were injected intravenously (IV; 0.1 mL/mouse) with saline containing chicken ovalbumin and Evan's blue (10 mg/mL of each). Ten minutes later (t=10 min), animals were anesthesized with isoflurane, the dorsal surface was shaved and rabbit anti-chicken ovalbumin antibody was then injected intradermally at one site on the right side of the animal (25 μg in 30 μL). The same amount of isotype control antibody was then injected on the left side.
The animals were then returned to their home cage and skin punches (8 mm) were collected from each injection site four hours later. The samples were placed in 1 mL formamide overnight at 80 degrees C. (1 skin biopsy per 1 mL formamide in a glass tube). The amount of Evan's blue in the formamide solution was then assessed by spectrophotometry (630 nm) as a measure of serum extravasation into the dermis.

[1] = tested on: Splenocytes (B cell proliferation stimulated with anti-IgM F(ab′)2); assay: Splenic Cell Proliferation Assay; type: cell-based; details: CD1 mouse splenocytes, 2.5 ug/ml anti-IgM F(ab′)2 for 72 h, Cell Titer-Glo, read-out: EC50 (nM), Inhibition of splenic cell proliferation
Description: Splenic Cell Proliferation Assay
Splenocytes were obtained from 6 week old male CD1 mice (Charles River Laboratories Inc.). Mouse spleens were manually disrupted in PBS and filtered using a 70 um cell strainer followed by ammonium chloride red blood cell lysis. Cells were washed, resuspended in Splenocyte Medium (HyClone RPMI supplemented with 10% heat-inactivated FBS, 0.5× non-essential amino acids, 10 mM HEPES, 50 uM beta mercaptoethanol) and incubated at 37° C., 5% CO2 for 2 h to remove adherent cells. Suspension cells were seeded in 96 well plates at 50,000 cells per well and incubated at 37° C., 5% CO2 for 1 h. Splenocytes were pre-treated in triplicate with 10,000 nM curves of Formula 1 compounds for 1 h, followed by stimulation of B cell proliferation with 2.5 ug/ml anti-IgM F(ab′)2 (Jackson ImmunoResearch) for 72 h. Cell proliferation was measured by Cell Titer-Glo Luminescent Assay (Promega). EC50 values (50% proliferation in the presence of compound as compared to vehicle treated controls) were calculated from dose response compound curves using GraphPad Prism Software.

[2] = biological target: recombinant human full-length Bruton Agammaglobulinemia Tyrosine Kinase (Btk) (Homo sapiens (Human), UniProt Q06187); assay: Btk Kinase Inhibition Assay (fluorescence polarization); type: biochemical; details: 10 μM ATP, 250 μM substrate, 60 minutes; Ki calculated from IC50 using the Cheng-Prusoff equation
Description: Kinase Binding Btk Kinase Inhibition Assay
Fluorescence polarization-based kinase assays were performed in 384 well-plate format using histidine tagged recombinant human full-length Bruton Agammaglobulinemia Tyrosine Kinase (Btk) and a modified protocol of the KinEASE™ FP Fluorescein Green Assay supplied from Millipore. Kinase reaction were performed at room temperature for 60 minutes in presence of 250 μM substrate, 10 μM ATP and variable test article concentrations. The reaction was stopped with EDTA/kinase detection reagents and the polarization measured on a Tecan 500 instrument. From the dose-response curve obtained, the IC50 was calculated using Graph Pad Prisms® using a non linear fit curve. The Km for ATP on each enzyme was experimentally determined and the Ki values calculated using the Cheng-Prusoff equation (see: Cheng Y, Prusoff W H. (1973) Relationship between the inhibition constant (K1) and the concentration of inhibitor which causes 50 percent inhibition (I50) of an enzymatic reaction”. Biochem Pharmacol 22 (23): 3099-108).

Chain of recombinant human full-length Bruton Agammaglobulinemia Tyrosine Kinase (Btk) (Q06187 whole entry): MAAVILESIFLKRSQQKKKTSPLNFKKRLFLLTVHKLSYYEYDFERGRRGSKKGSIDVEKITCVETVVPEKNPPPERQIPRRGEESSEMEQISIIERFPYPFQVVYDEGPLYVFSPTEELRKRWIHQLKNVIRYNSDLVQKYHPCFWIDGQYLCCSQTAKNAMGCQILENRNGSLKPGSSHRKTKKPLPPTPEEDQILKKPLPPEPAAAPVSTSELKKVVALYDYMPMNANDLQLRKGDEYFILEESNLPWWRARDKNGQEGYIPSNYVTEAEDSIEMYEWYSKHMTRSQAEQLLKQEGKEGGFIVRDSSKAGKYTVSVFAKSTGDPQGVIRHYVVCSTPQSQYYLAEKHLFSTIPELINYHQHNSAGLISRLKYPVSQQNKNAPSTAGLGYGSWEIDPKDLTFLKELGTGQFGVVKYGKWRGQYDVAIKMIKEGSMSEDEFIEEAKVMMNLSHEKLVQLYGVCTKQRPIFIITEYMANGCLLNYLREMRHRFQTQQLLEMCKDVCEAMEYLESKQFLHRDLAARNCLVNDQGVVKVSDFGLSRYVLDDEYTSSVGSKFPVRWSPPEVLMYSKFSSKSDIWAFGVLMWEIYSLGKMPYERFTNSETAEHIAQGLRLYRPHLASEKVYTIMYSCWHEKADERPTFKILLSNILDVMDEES

Row | Structure (SMILES) | efficacy in mouse Arthus (Evan's blue extravasation) (Balb/c mice) | EC50 ([1]; Mus musculus, Splenocyte, 72 h) [nM] | Ki [2] [nM] | EC50 [1] [nM]
1 | Cc1ncc(COc2cc(F)cc(Oc3ccc(-c4nn(CC(C)(C)O)c5ncnc(N)c45)cc3)c2)s1 [Compound 117] | demonstrated efficacy | < 100 | < 100 | 
2 | Nc1ncnc2c1c(-c1ccc(Oc3cc(F)cc(OCc4cncs4)c3)cc1)nn2C1CCOCC1 [Compound 46] | demonstrated efficacy | < 100 | < 100 | 
3 | Cn1cncc1COc1cc(F)cc(Oc2ccc(-c3nn(C4CCOCC4)c4ncnc(N)c34)cc2)c1 [Compound 71] | demonstrated efficacy | < 100 | < 100 | 
4 | Cc1ncc(COc2cc(F)cc(Oc3ccc(-c4nn(CC5(C)COC5)c5ncnc(N)c45)cc3)c2)s1 [Compound 125] | demonstrated efficacy | < 100 | < 100 | 
5 | Cc1ncc(COc2cc(F)cc(Oc3ccc(-c4nn(C5CCCC5)c5ncnc(N)c45)cc3)c2)cn1 [Compound 107] | demonstrated efficacy | < 100 | < 100 | 
6 | Cc1ncc(COc2cc(F)cc(Oc3ccc(-c4nn(C5CCOCC5)c5ncnc(N)c45)cc3)c2)s1 [Compound 54] | demonstrated efficacy | < 100 | < 100 | 
7 | Cn1cncc1COc1cc(F)cc(Oc2ccc(-c3nn(C4CCCC4)c4ncnc(N)c34)cc2)c1 [Compound 82] | demonstrated efficacy | < 100 | < 100 | 
8 | Cn1cncc1COc1cc(F)cc(Oc2ccc(-c3nn(CCO)c4ncnc(N)c34)cc2)c1 [Compound 90] | demonstrated efficacy | 100 to 1000 | < 100 | 
9 | N#Cc1ccccc1COc1cccc(Oc2ccc(-c3nn(C4CCCC4)c4ncnc(N)c34)cc2)c1 [Compound 15] | demonstrated efficacy |  | < 100 | < 100
10 | Nc1ncnc2c1c(-c1ccc(Oc3cccc(OCc4cncs4)c3)cc1)nn2C1CCOCC1 [Compound 24] | demonstrated efficacy | < 100 | < 100 | 
11 | Cc1ncc(COc2cc(F)cc(Oc3ccc(-c4nn(C5CCOCC5)c5ncnc(N)c45)cc3F)c2)s1 [Compound 59] | demonstrated efficacy | < 100 | < 100 | 
12 | Cc1ncc(COc2cccc(Oc3ccc(-c4nn(C5CCOCC5)c5ncnc(N)c45)cc3F)c2)s1 [Compound 62] | demonstrated efficacy | < 100 | < 100 | 
13 | Cc1ncc(COc2cc(F)cc(Oc3ccc(-c4nn(C5CCOCC5)c5ncnc(N)c45)cc3)c2)n1C [Compound 108] | demonstrated efficacy | < 100 | < 100 | 
14 | Cn1cncc1COc1cc(F)cc(Oc2ccc(-c3nn(C4CCCCC4)c4ncnc(N)c34)cc2)c1 [Compound 103] | demonstrated efficacy | < 100 | < 100 | 
15 | CC(C)n1nc(-c2ccc(Oc3cc(F)cc(OCc4cncn4C)c3)cc2)c2c(N)ncnc21 [Compound 79] | demonstrated efficacy | < 100 | < 100 | 
16 | Cc1ncc(COc2cc(F)cc(Oc3ccc(-c4nn(CC5(C)COC5)c5ncnc(N)c45)cc3)c2)n1C [Compound 124] |  | 100 to 1000 | < 100 | 

Row | Structure (SMILES) | efficacy in mouse Arthus (Evan's blue extravasation) (Balb/c mice) | EC50 ([1]; Mus musculus, Splenocyte, 72 h) [nM] | Ki [2] [nM] | EC50 [1] [nM]
17 | C=CC(=O)N1CCC[C@@H](n2nc(-c3ccc(Oc4cccc(OCc5ccccc5)c4)cc3)c3c(N)ncnc32)C1 [Compound 5] |  | < 100 | < 100 | 
18 | CC(C)(C)OC(=O)N1CCC[C@@H](n2nc(-c3ccc(Oc4cccc(OCc5ccccc5)c4)cc3)c3c(N)ncnc32)C1 [Compound 3] |  | 100 to 1000 | < 100 | 
19 | Nc1ncnc2c1c(-c1ccc(Oc3cccc(OCc4ccccc4C(F)(F)F)c3)cc1)nn2C1CCOCC1 [Compound 23] |  | < 100 | < 100 | 
20 | Cc1ccc(COc2cc(F)cc(Oc3ccc(-c4nn(C5CCOCC5)c5ncnc(N)c45)c(F)c3)c2)cn1 [Compound 95] |  | < 100 | < 100 | 
21 | Cn1nc(-c2ccc(Oc3cccc(COc4ccccc4C#N)c3)cc2)c2c(N)ncnc21 [Compound 17] |  | 100 to 1000 | < 100 | 
22 | Nc1ncnc2c1c(-c1ccc(Oc3cc(F)cc(OCc4ccccc4)c3)cc1)nn2C1CCOCC1 [Compound 63] |  | < 100 | < 100 | 
23 | Cc1ncc(COc2cc(F)cc(Oc3ccc(-c4nn(C(CO)CO)c5ncnc(N)c45)cc3)c2)s1 [Compound 100] | demonstrated efficacy | < 100 | < 100 | 
24 | Cc1ncc(COc2cccc(Oc3ccc(-c4nn(C5CCOCC5)c5ncnc(N)c45)cc3)c2)s1 [Compound 38] |  | < 100 | < 100 | 
25 | Cc1ccc(COc2cc(F)cc(Oc3ccc(-c4nn(CC(C)(C)O)c5ncnc(N)c45)cc3)c2)cn1 [Compound 111] |  | 100 to 1000 | < 100 | 
26 | Nc1ncnc2c1c(-c1ccc(Oc3cc(F)cc(OCc4cncn4Cc4ccccc4)c3)cc1)nn2C1CCOCC1 [Compound 76] |  | 100 to 1000 | < 100 | 
27 | Cn1nc(-c2ccc(Oc3cccc(OCc4ccccc4C#N)c3)cc2)c2c(N)ncnc21 [Compound 30] |  | < 100 | < 100 | 
28 | CC(C)C(=O)N1CCC[C@@H](n2nc(-c3ccc(Oc4cccc(OCc5ccccc5)c4)cc3)c3c(N)ncnc32)C1 [Compound 8] |  | < 100 | < 100 | 
29 | Nc1ncnc2c1c(-c1ccc(Oc3cc(F)cc(CCc4ccccc4)c3)cc1)nn2C1CCOCC1 [Compound 66] |  | 100 to 1000 | < 100 | 
30 | Nc1ncnc2c1c(-c1ccc(Oc3cccc(OCc4ccccc4)c3)cc1)nn2C1CCCC1 [Compound 2] |  | 100 to 1000 | < 100 | 
31 | Cc1ncc(COc2cc(F)cc(Oc3ccc(-c4nn(CC(C)(C)O)c5ncnc(N)c45)cc3)c2)cn1 [Compound 122] |  | 100 to 1000 | < 100 | 
32 | CC(C)n1nc(-c2ccc(Oc3cc(F)cc(OCc4ccc(CO)nc4)c3)cc2)c2c(N)ncnc21 [Compound 128] |  | < 100 | < 100 | 

— patent US9796716B2, “Selective inhibitors of Tec and Src protein kinase families” (Pharmascience, Inc., priority 2012, dated 2017)
